In patent publication US8586747B2, “3,3-dimethyl tetrahydroquinoline derivatives” (Hoffmann-La Roche Inc., priority 2010, dated 2013) one finds E30 data, which are given here for twelve compounds.

The subject of this experiment is AMP-activated protein kinase (AMPK). As to the kind of experiment: ADP Quest assay for AMPK activators. In kind it is biochemical. Further details: key: fold AMPK activation with vs without activator at 30 µM. Conditions: fold of AMPK activation to phosphorylate SAMS peptide without and with an activator at the concentration of 30 µM. In short, it runs like this: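 AMPK phosphorylation of SAMS peptide with ATP monitored kinetically at room temperature by ADP Quest fluorescence (ex 530/em 590 nm), reaction started with enzyme. Compounds tested […] in 2-fold dilutions, AMP as reference. E30 is fold activation at 30 µM activator versus none.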

`CC1(C)Cc2c(ccc(F)c2C(=O)O)NC1c1cccc(N2CCOCC2)c1` (stereo not drawn) [Example 121, 6-Fluoro-3,3-dimethyl-2-(3-morpholin-4-yl-phenyl)-1,2,3,4-tetrahydro-quinoline-5-carboxylic acid] returned an E30 of 1.42. Turning to `CC(C)[C@H]1COC(=O)N1c1cccc(C2Nc3ccc(C(=O)O)cc3CC2(C)C)c1` (stereo partly drawn) [Example 122], the E30 is recorded as 1.39.

In turn, `CC(C)[C@@H]1COC(=O)N1c1cccc(C2Nc3ccc(C(=O)NS(C)(=O)=O)cc3CC2(C)C)c1` (stereo partly drawn) [Example 123, N-{2-[3-((R)-4-Isopropyl-2-oxo-oxazolidin-3-yl)-phenyl]-3,3-dimethyl-1,2,3,4-tetrahydro-quinoline-6-carbonyl}-methanesulfonamide] had an E30 of 1.36. Compound `CC(C)[C@@H]1COC(=O)N1c1cccc(C2Nc3ccc(C(=O)NS(=O)(=O)C4CC4)cc3CC2(C)C)c1` (stereo partly drawn) [Example 125, Cyclopropanesulfonic acid {2-[3-((R)-4-isopropyl-2-oxo-oxazolidin-3-yl)-phenyl]-3,3-dimethyl-1,2,3,4-tetrahydro-quinoline-6-carbonyl}-amide] returned an E30 of 1.33. With `CN1CCN(c2cccc(C3Nc4ccc(C(=O)O)cc4CC3(C)C)c2)C(=O)C1=O` (stereo not drawn) [Example 126, 3,3-Dimethyl-2-[3-(4-methyl-2,3-dioxo-piperazin-1-yl)-phenyl]-1,2,3,4-tetrahydro-quinoline-6-carboxylic acid], the E30 turned out to be 1.28. Compound `CC1(C)Cc2cc(C(=O)NS(C)(=O)=O)ccc2NC1c1cccc(N2C(=O)OC[C@H]2Cc2ccccc2)c1` (stereo partly drawn) [Example 128, N-{2-[3-((R)4-Benzyl-2-oxo-oxazolidin-3-yl)-phenyl]-3,3-dimethyl-1,2,3,4-tetrahydro-quinoline-6-carbonyl}-methanesulfonamide] gave an E30 of 1.26. Compound `CN1CCN(c2cccc(C3Nc4ccc(C(=O)NS(=O)(=O)C5CC5)cc4CC3(C)C)c2)C(=O)C1=O` (stereo not drawn) [Example 129, Cyclopropanesulfonic acid {3,3-dimethyl-2-[3-(4-methyl-2,3-dioxo-piperazin-1-yl)-phenyl]-1,2,3,4-tetrahydro-quinoline-6-carbonyl}-amide] came in with an E30 of 1.25. Take `CC1(C)Cc2cc(C(=O)NS(=O)(=O)C3CC3)ccc2NC1c1cccc(N2C(=O)OC[C@H]2Cc2ccccc2)c1` (stereo partly drawn) [Example 130, Cyclopropanesulfonic acid {2-[3-((R)4-benzyl-2-oxo-oxazolidin-3-yl)-phenyl]-3,3-dimethyl-1,2,3,4-tetrahydro-quinoline-6-carbonyl}-amide]: the E30 was determined as 1.25.

In the case of `CN1CCN(c2cccc(C3Nc4ccc(C(=O)NS(C)(=O)=O)cc4CC3(C)C)c2)C(=O)C1=O` (stereo not drawn) [Example 131, N-{3,3-Dimethyl-2-[3-(4-methyl-2,3-dioxo-piperazin-1-yl)-phenyl]-1,2,3,4-tetrahydro-quinoline-6-carbonyl}-methanesulfonamide], the E30 amounted to 1.24. Turning to `CC1(C)Cc2cc(C(=O)NS(=O)(=O)C3CC3)ccc2NC1c1cccc(N2C(=O)OC[C@@H]2Cc2ccccc2)c1` (stereo partly drawn) [Example 132, Cyclopropanesulfonic acid {2-[3-((S)-4-benzyl-2-oxo-oxazolidin-3-yl)-phenyl]-3,3-dimethyl-1,2,3,4-tetrahydro-quinoline-6-carbonyl}-amide], the E30 was determined as 1.23. `CC1(C)Cc2c(C(=O)NS(=O)(=O)C3CC3)ccc(Cl)c2NC1c1cccc(N2CCOCC2)c1` (stereo not drawn) [Example 133, Cyclopropanesulfonic acid [8-chloro-3,3-dimethyl-2-(3-morpholin-4-yl-phenyl)-1,2,3,4-tetrahydro-quinoline-5-carbonyl]-amide] gave an E30 of 1.2. With `CC1(C)Cc2c(cc(F)cc2C(=O)O)NC1c1cccc(N2CCOCC2)c1` (stereo not drawn) [Example 134, 7-Fluoro-3,3-dimethyl-2-(3-morpholin-4-yl-phenyl)-1,2,3,4-tetrahydro-quinoline-5-carboxylic acid], the E30 came out at 1.32.
